Experimental data published in ChEMBL document CHEMBL1201862, “PubChem BioAssay data set” (2004).
Calls of active or inactive are those of the source.

Key:
Troponin, cardiac muscle = Troponin, cardiac muscle (Homo sapiens, UniProt P19429+P45379+P63316); assay: inhibitors of cardiac thin filament calcium sensitivity, dose response, biochemical, fluorescence, cardiac regulated thin filaments, triplicate IC50 (AID 504742); assay type: protein-complex assay
[1] = molecular target: T1, Tyrosine-protein phosphatase non-receptor type 22 (Homo sapiens, UniProt Q9Y2R2); assay: LYP1 Fluorescent Assay using OMFP substrate for In Vitro dose response studies. [Related pubchem assays (depositor defined):AID1779, AID1784, AID435024]
T1 sequence (Q9Y2R2 whole entry): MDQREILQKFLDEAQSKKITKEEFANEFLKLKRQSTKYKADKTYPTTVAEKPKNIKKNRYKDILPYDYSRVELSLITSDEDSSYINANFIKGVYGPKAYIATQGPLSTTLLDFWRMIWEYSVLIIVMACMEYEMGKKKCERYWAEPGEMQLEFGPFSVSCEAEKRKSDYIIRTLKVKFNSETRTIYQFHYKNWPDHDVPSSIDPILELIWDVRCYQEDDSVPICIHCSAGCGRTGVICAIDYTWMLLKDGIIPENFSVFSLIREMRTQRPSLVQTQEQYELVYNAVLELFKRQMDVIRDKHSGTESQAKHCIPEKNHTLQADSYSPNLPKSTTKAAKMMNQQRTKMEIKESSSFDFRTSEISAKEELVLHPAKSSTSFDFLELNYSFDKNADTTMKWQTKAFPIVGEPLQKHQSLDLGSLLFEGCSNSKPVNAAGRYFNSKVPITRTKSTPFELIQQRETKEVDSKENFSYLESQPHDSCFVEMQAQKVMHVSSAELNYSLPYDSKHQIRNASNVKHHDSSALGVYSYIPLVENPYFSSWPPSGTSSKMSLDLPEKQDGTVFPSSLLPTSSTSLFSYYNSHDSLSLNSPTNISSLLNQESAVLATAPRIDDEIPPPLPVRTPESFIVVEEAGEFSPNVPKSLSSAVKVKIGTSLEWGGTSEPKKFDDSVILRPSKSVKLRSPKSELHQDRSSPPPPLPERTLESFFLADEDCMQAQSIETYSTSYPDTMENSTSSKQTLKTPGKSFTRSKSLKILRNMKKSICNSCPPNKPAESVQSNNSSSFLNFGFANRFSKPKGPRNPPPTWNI

[2] = molecular target: Small ubiquitin-related modifier 2 (Homo sapiens, UniProt P61956); assay: SUMO2–SIM peptide binding inhibitors, dose response, selectivity assay for SUMO1 interaction inhibitor project, biochemical, fluorescence polarization, uHTS hits (AID 624385); assay type: functional; settings: read-out: IC50_Mean
[3] = molecular target: Kappa-type opioid receptor (Homo sapiens, UniProt P41145); assay type: functional
[4] = Shn3 3'UTR reporter inhibitors, dose response, cell-based, Clone20 osteoblasts, firefly luciferase, cherry-picked (AID 624132); assay type: functional;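 note: firefly luciferase luminescence from reporter carrying the Shn3 3'UTR in osteoblasts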
BJ [5] = assay: cytotoxicity toward BJ-TERT fibroblasts, dose response, cell-based, RAS-independent, luminescence (AID 1933); assay type: functional; settings: Homo sapiens
[6] = control 3'UTR Renilla luciferase suppression, dose response, counter-screen for Shn3 inhibitor project, cell-based, Clone20-Shn3RL, cherry-picked (AID 624133); assay type: functional
[7] = HepG2 cell cytotoxicity, dose response, cytotoxicity control for Shn3 inhibitor project, CellTiter-Glo, cherry-picked (AID 624134); assay type: functional, cell-based
BJ [8] = assay: cytotoxicity toward Ras-transformed BJeLR fibroblasts, dose response, cell-based, alamar blue fluorescence, cherrypicked samples (AID 2631); assay type: functional; settings: Homo sapiens;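 note: confirmatory dose-response assay in RAS-dependent BJ fibroblasts engineered with TERT, LT and ST, with cytotoxicity read by fluorescence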
Caspase-6 = molecular target: T2, Caspase-6 (Homo sapiens, UniProt P55212); assay: human caspase-6 inhibitors, dose response, biochemical, VEID-R110 fluorescence, cherry-pick (AID 720632)
T2 sequence (P55212 whole entry): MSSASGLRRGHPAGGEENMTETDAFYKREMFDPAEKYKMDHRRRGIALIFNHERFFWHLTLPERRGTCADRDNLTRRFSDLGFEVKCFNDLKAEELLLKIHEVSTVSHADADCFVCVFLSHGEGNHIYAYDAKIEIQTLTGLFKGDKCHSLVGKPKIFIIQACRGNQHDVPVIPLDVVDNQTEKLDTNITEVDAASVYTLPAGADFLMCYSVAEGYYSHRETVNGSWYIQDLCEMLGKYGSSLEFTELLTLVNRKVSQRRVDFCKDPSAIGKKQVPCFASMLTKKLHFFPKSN

SMILES: O=C(O)c1cccc(-n2cccc2/C=C2/NC(=O)N(c3ccc(Cl)cc3)C2=O)c1
- IC50 (Troponin, cardiac muscle): 3.45 µM (active)
- IC50 [1]: 4.54 µM (active)
- IC50 [2]: 66 µM (inactive)

SMILES: C=C1C(=O)O[C@@H]2C[C@@H](C)[C@@H]3C=CC(=O)[C@@]3(C)[C@@H](OC(=O)CC(=O)O[C@H]3[C@@H]4C(=C)C(=O)O[C@@H]4C[C@@H](C)[C@@H]4C=CC(=O)[C@]43C)[C@H]12
- IC50 [3]: 9.14 µM
- AC50 [4]: 292 nM (active)
- EC50 (BJ [5]): 354 nM (inconclusive)
- AC50 [6]: 280 nM (active)
- AC50 [7]: 895 nM (active)
- EC50 (BJ [8]): 52.5 nM (active)

SMILES: O=S(=O)(O)c1cc(Cl)cc(N=Nc2ccc(O)cc2O)c1O
- AC50 (Caspase-6): 2.44 µM (active)
